Measurements as given in patent publication US20260248809A1, “ESTRADIOL PRODRUGS AND METHODS OF USE THEREOF” (UNIVERSITY OF MARYLAND, BALTIMORE, priority 2022, published 2026).
“Also recorded” adds a separate entry of the source.

Tests used:
[1] = in vivo; cited from earlier work
[2] = Pharmacokinetic assessment of the DHED-acetate prodrug, IV and PO; format: in vivo, mouse
Protocol: FIGS. 29A-29B illustrate the pharmacokinetic assessment of the DHED-acetate prodrug. The concentration levels of the DHED-acetate prodrug (FIG. 29A) and DHED (FIG. 29B) were measured in mice (n=3) after IV and PO administration of 5 mg/kg solution dose of DHED-acetate prodrug.
Pharmacokinetic (PK) assessment of prodrugs. […] Generally, this PK study and analysis proceeds similarly to previous studies aimed at assessing the oral bioavailability of (2R,6R)-HNK. As in previous data with DHED (FIGS. 6A-6B), male C57BL/6J mice (n=6/time point) receive 200 μg of prodrug in 0.9% (20% cyclodextrin) administered either IV or PO. Plasma and brain are collected at 5 min, 15 min, 30 min, 1 h, and 4 h after administration. PK is performed using tandem liquid chromatography-mass spectrometry (LC-MS/MS) for quantification. Pharmacokinetic analysis is performed using Phoenix WinNonLin. Non-compartmental analysis is performed to determine the following parameters: C0 (Back-extrapolated concentration at time 0); Cmax (Maximum observed concentration); Tmax (time of maximum observed concentration); AUC0-t (Area under the concentration-time curve from hour 0 to the last measurable concentration, estimated by the linear trapezoidal rule). Statistical significance is calculated using the unpaired t-test or Mann-Whitney U test for comparing AUC values. Importantly, pharmacokinetic measurements observe both the level of the prodrug and free DHED moiety in the plasma. A critical comparison is measuring the DHED levels after administration of the prodrug compared to after administration of DHED itself. […] E2 levels are measured with liquid chromatography tandem mass spectrometry (LC-MS/MS) using standard methods. […] If levels of E2 are too low to be quantified via this measure, and to distinguish naturally-produced from DHED prodrug-produced E2, E2 levels can be quantitated at the femtomole level utilizing deuterium-labelled E2 standards and triple quadrupole mass spectrometry.

[3] = Body, testis and seminal vesicle weights after hormonal treatments; format: in vivo, mouse
Protocol: (§1) For the chronic administration paradigms, silastic tubes (1.02 mm inner diameter×2.16 mm outer diameter) were filled with testosterone (10 mm) or 17β-Estradiol (E2; 1,3 and 10 mm; Sigma-Aldrich, St. Louis, MO, USA). Silastic implants were primed in 0.9% saline at 37° C. overnight prior to their subcutaneous use. Letrozole (1 mg/kg/day; Sigma-Aldrich, St. Louis, MO, USA) was dissolved in propylene glycol (MP Biomedicals, Santa Ana, CA, USA) and administered through ALZET minipumps (Model 1002, 0.25 μl/hour, 14 days; Cupertino, CA, USA). DHED (synthesized using previously described methods) was dissolved in 0.9% saline and administered through ALZET minipumps (Model 1002, 0.25 μl/hour, 14 days; Cupertino, CA, USA) at a dose of […]. Flutamide was administered through 1.5 mg slow-release subcutaneous pellets (Innovative Research of America, Sarasota, FL, USA). For acute administration, 17β-Estradiol (E2; 10 and […]) was dissolved in sesame oil (4 ml/kg, s.c.; Sigma-Aldrich, St. Louis, MO, USA).
Subcutaneous implantations were performed during the same time as the orchiectomies. The surgical area was thoroughly cleaned with Betadine solution (10% povidone-iodine surgical scrub) followed by 70% ethanol. A small, approximately 1-cm incision was made between the scapulae using a pair of small sterile surgical scissors. Hemostats were then inserted and spread laterally to the incision to create a cavity in the subcutaneous space in which ALZET mini-osmotic pumps or silastic implants were inserted for continuous drug/vehicle delivery. The skin was closed with suturing.

male mice [4] = experiment: Subthreshold social defeat stress followed by female urine sniffing test (anhedonia); format: in vivo, mouse
Protocol: (§2) Subthreshold social defeat stress: Retired CD1 breeders are singly housed and used as aggressors. Experimental mice are introduced to the home cage of an aggressor for 2 min to initiate the physical attack phase. Afterward, mice are transferred and housed on the opposite side of the aggressor, in the same cage separated by a perforated Plexiglass divider for 15 mins in order to maintain sensory contact. This process is repeated 3 times over a period of ~50 min.
(§3) Female Urine Preference Test: is performed 24 hours after the social interaction test as using previously described methods. The amount of time mice spent interacting with a cotton-tipped applicator soaked in either fresh male or female mouse urine during a total of 3 minutes is analyzed by an experimenter blind to the experimental groups.
as §1
(§4) Retired CD1 breeders were singly housed and used as aggressors. Two days prior to the start of the experiment, experimental mice were also singly housed. The stress procedure was performed using previously described methods. Briefly, experimental mice were introduced to the home cage of an aggressor for 2 min to initiate the physical attack phase. Afterward, mice were transferred and housed on the opposite side of the aggressor, in the same cage separated by a perforated Plexiglass divider for 15 mins in order to maintain sensory contact. This process was repeated 3 times over a period of ~50 min. Following the completion of the third cycle, mice were placed back in their home cages.
(§5) Acute E2 was administered 45 min prior to the initiation of stress or 5 min after the completion of stress. For the optogenetic stimulation, ChR2 and YFP-injected mice received a 4 Hz, 5 ms pulse width, 10-15 mW 470 nm light stimulation for 45 min prior to the initiation of stress. This stimulation paradigm was shown previously to increase synaptic transmission. The optogenetic set up consisted of an LED driver paired with a fiber-coupled LED light source attached to a bifurcated optogenetic path cable (400 μm, 0.49 NA; ThorLabs, Newton NJ, USA).
as §3, with “FUST procedure was” for “Female Urine Preference Test: is”, “and 48 hours after stress. FUST was performed” for “as”, “was” for “is”

male mice [5] = experiment: Subthreshold social defeat stress (SSDS) followed by social interaction test; format: in vivo, mouse
Protocol: as §2
(§6) Social Interaction: Mice are placed in a rectangular box (40 cm length×30 cm width×35 cm height; Stoelting, IL) divided into three compartments (two equal-sized end-chambers and a middle chamber) for five minute habituation phase (10-15 lux). After the habituation phase, two small wire cages are introduced into the two end chambers, one containing an unfamiliar, non-aggressive CD1 mouse and the other remaining empty. The amount of time mice spent sniffing each cage during the five-min test is assessed using CleverSys tracking software (CleverSys, Inc, Reston VA, USA).
as §1, §4, §5
as §6, with “Social interaction was performed 24 hours following subthreshold social defeat or inescapable foot-shock stress. For the habituation phase, mice were” for “Social Interaction: Mice are”, “five minutes” for “five minute habituation phase”, “cages were” for “cages are”, “test was” for “test is”

[6] = test system: optically-induced postsynaptic currents (oPSC) in the NAc; experiment: Whole-cell patch clamp of optically-induced postsynaptic currents in NAc slices; parameters: species or system mouse; conditions: bath applied NBQX and APV together
Protocol: Mice (n=3 males) that were previously injected with ChR2 in the BLA were deeply anesthetized with isoflurane before decapitation and brain extraction. Coronal 250 μm thick sections were collected in ice cold 95% oxygen, 5% carbon dioxide-bubbled modified artificial cerebrospinal fluid (aCSF, 194 mM sucrose, 30 mM NaCl, 4.5 mM KCl, 1 mM MgCl2, 26 mM NaHCO3, 1.2 mM NaH2PO4, and 10 mM D-glucose) before incubating at 32° C. for 30 min in aCSF (124 mM NaCl, 4.5 mM KCl, 2 mM CaCl2), 1 mM MgCl2, 26 mM NaHCO3, 1.2 mM NaH2PO4, and 10 mM D-glucose). Slices were then stored at room temperature until recording.
Slices were hemisected, placed into a recording chamber, and perfused with temperature controlled aCSF (29-31° C.). NAc medium spiny neurons (MSNs) were visualized using infrared differential interference contrast light microscopy, Q-capture camera, and associated Pro 7 software. […] Optically evoked post synaptic currents (oPSC) were elicited by an optical fiber placed in the recording chamber that delivered 4 ms pulses of light (473 nm) every 20s for a total recording duration of 15 min. oPSCs were recorded using borosilicate glass pipettes (2-4 MΩ resistance) filled with Cesium Methanesulfonate internal solution (135 mM cesium methanesulfonate, 3 mM NaCl, 10 mM HEPES, 0.6 mM EGTA, 4 mM MgATP, 0.3 mM NaGTP, 5 mM QX-314C1, pH 7.2, 310 mOsm). […]

rodents = conditions: high doses administered orally to rodents; cited from earlier work
galanin expression = conditions: rat, in vivo; cited from earlier work
in vivo = conditions: male, C57BL/6J, mouse
Source text: Although these findings support a critical role for E2, and not testosterone itself, as the biologically active hormone mediating stress susceptibility in hypogonadal male mice, E2 replacement therapy cannot be considered as a viable treatment in human male veteran populations due to its peripheral side effects, including gynecomastia and erectile dysfunction. However, isolating the effects of E2 to the central nervous system would provide a viable therapy. […] As a next step in advancing this treatment, the oral bioavailability of DHED was assessed, comparing oral versus intravenous delivery routes.
Pharmacokinetic (PK) assessment of prodrugs. […] Generally, this PK study and analysis proceeds similarly to previous studies aimed at assessing the oral bioavailability of (2R,6R)-HNK. […] PK is performed using tandem liquid chromatography-mass spectrometry (LC-MS/MS) for quantification. […] Statistical significance is calculated using the unpaired t-test or Mann-Whitney U test for comparing AUC values. […] E2 levels are measured with liquid chromatography tandem mass spectrometry (LC-MS/MS) using standard methods. […] If levels of E2 are too low to be quantified via this measure, and to distinguish naturally-produced from DHED prodrug-produced E2, E2 levels can be quantitated at the femtomole level utilizing deuterium-labelled E2 standards and triple quadrupole mass spectrometry.

[7] = test system: progesterone receptor (PR) expression; conditions: rat, in vivo; cited from earlier work
[8] = test system: estrogen or other hormone receptors; conditions: cited from earlier work
C3 expression = conditions: rat, in vivo; cited from earlier work
[9] = chronic treatment, gonadally intact male mice + SSDS
[10] = chronic treatment (silastic implant or minipump), orchiectomized male mice + SSDS

SMILES: C[C@]12CC[C@H]3[C@@H](CCC4=CC(=O)CC[C@@]43C)[C@@H]1CC[C@@H]2OC(=O)[C@@H]1CCCN1C(=O)c1ccc(S(N)(=O)=O)cn1 [EC586]
- oral bioavailability of testosterone [1]: substantially enhance the oral bioavailability

SMILES: CC(=O)O[C@H]1CC[C@H]2[C@@H]3CCC4=CC(=O)C=C[C@]4(O)[C@H]3CC[C@]12C [Example 1.1, (8S,9S,10S,13S,14S,17S)-10-hydroxy-13-methyl-3-oxo-6,7,8,9,10,11,12,13,14,15,16,17-dodecahydro-3H-cyclopenta[a]phenanthren-17-yl acetate]
- concentration level of the prodrug after IV administration ([2]; mice (n=3), 5 mg/kg solution dose, IV): very rapidly metabolized
- concentration level of the prodrug after PO administration ([2]; mice (n=3), 5 mg/kg solution dose, PO): cannot be detected
- conversion of the prodrug into DHED ([2]; mice, 5 mg/kg, IV or PO): hydrolyzed into DHED

SMILES: N#Cc1ccc(C(c2ccc(C#N)cc2)n2cncn2)cc1 [letrozole, Letrozole]
- body weight ([3]; chronic treatment): increased body weight
- seminal vesicle weight ([3]; chronic treatment): increased seminal vesicle weight
- testis weight ([3]; chronic treatment): no difference in testes weight
- anhedonia following stress (male mice [4]; [9]): induced a stress-susceptible phenotype
- social interaction deficits following stress (male mice [5]; [9]): deficits in social interaction

SMILES: NS(=O)(=O)c1cccc2c1c([N+](=O)[O-])cc1nc(O)c(O)nc12 [NBQX]
- oPSCs in NAc of ERβ-cre mice with ChR2 in the BLA [6]: blocked

SMILES: CCCCCCCCCC(=O)O[C@H]1CC[C@H]2[C@@H]3CCC4=CC(=O)CC[C@]4(C)[C@H]3CC[C@]12C [Testosterone-decanoate]
- oral bioavailability of testosterone [1]: substantially enhance the oral bioavailability

SMILES: N[C@@H](CCCP(=O)(O)O)C(=O)O [APV]
- oPSCs in NAc of ERβ-cre mice with ChR2 in the BLA [6]: blocked

SMILES: C[C@]12CC[C@H]3[C@@H](CCC4=CC(=O)C=C[C@@]43O)[C@@H]1CC[C@@H]2O [DHED, 10β,17β-dihydroxyestra-1,4-dien-3-one]
- efficacy in models of hot flushes (rodents): E2-like efficacy
- pituitary galanin expression (galanin expression): does not change
- bioavailability (in vivo; oral bioavailability measured in brain): < 2%
- bioavailability (in vivo; oral bioavailability measured in plasma): 10%
- body weight ([3]; chronic treatment): did not increase; also recorded: no difference
- seminal vesicle weight ([3]; chronic treatment): did not increase; also recorded: no difference
- relative seminal vesicle weights ([3]; s.c. treatment, compared to vehicle (saline) control): unaffected
- medial preoptic area PR expression [7]: increases medial preoptic area PR expression
- effects on estrogen or other hormone receptors throughout the body [8]: no effects on estrogen or other hormone receptors
- stress-induced anhedonia (male mice [4]; [10]): reversed the social interaction and hedonic deficits
- stress-induced social interaction deficits (male mice [5]; [10]): reversed the social interaction and hedonic deficits
- uterus C3 expression (C3 expression): does not change
